{"source": "patent US12115176B2", "about": "“Methods and compositions relating to ClbP inhibition” (PRESIDENT AND FELLOWS OF HARVARD COLLEGE, priority 2021, dated 2024)", "key": {"[1]": {"system": "Penicillin Binding Proteins (PBPs)", "test": "Gel-based ABPP with BOCILLIN-FL probe", "text": "To further explore the specificity of our inhibitors, another ABPP assay was used in which the broad-spectrum FP probe was replaced with a specific probe, BOCILLIN-FL, which targets penicillin binding proteins (PBPs) using a β-lactam warhead. This probe was chosen because of ClbP's homology to AmpC β-lactamases. Since PBPs are targeted by β-lactams, it was reasoned that the similarity of their binding pockets would mean a greater chance of identifying a secondary target among this family of enzymes."}, "E. coli BW25113 BACpks": {"system": "E. coli BW25113 BACpks", "test": "Metabolomics (LC-MS, XCMS)", "type": "cell-based", "details": "BW pks (and NC101), 1 μM 3 versus DMSO", "procedure": "Metabolomics. One 5 mL starter culture each of E. coli BW25113 BACpks and E. coli BW25113 BACpksΔclbP was inoculated from frozen stocks and grown overnight at 37° C. in LB medium supplemented with 35 μg/ml chloramphenicol (LB+cam). Overnights were diluted 1:1000 in fresh LB+cam+1% DMSO with or without 1 μM inhibitor 3 in 5 replicates for each condition and grown for 20 hours at 37° C. A 500 μL aliquot was taken from each replicate, flash frozen in liquid nitrogen and lyophilized to dryness. Lyophilized pellets were extracted with 500 μL LC-MS grade methanol and prepared in the same manner as described above for metabolomics. Samples were analyzed by LC-MS on an Agilent Technologies 1200 series LC with a Phenomenex Luna C18 column (5 μm, 100 Å, 250×4.6 mm) coupled to an Agilent 6530 Quadrupole-Time of Flight mass spectrometer. The following chromatography conditions were used: 99% Solvent A in Solvent B for 1.5 minutes, linear gradient to 0% Solvent A in Solvent B over 43.5 minutes, 0% Solvent A for 8 minutes, linear gradient back to 99% Solvent A over 1 minute, equilibration in 99% solvent A for 9 minutes at flow rate of 0.4 mL/min and a 10 uL injection volume. Solvent A is water with 0.1% formic acid, solvent B is acetonitrile with 0.1% formic acid. […]"}, "[2]": {"system": "FANCD2 in HeLa cell extracts", "test": "Western blot for FANCD2", "type": "cell-based, human", "details": "1 μM 3", "procedure": "Western Blot for FANCD2. Infections were carried out as described above. For conditions which involved other small molecules, no bacteria were introduced during the infection and cells were treated with either 0.5 μg/mL mitomycin C (MMC) or 7.5 μg/mL cisplatin under the same conditions for 4 hours. 20 hours after infection, cells were lysed directly in the culture wells (Lysis buffer: 50 mM Tris, (pH 8.0), 150 mM NaCl, 1% Triton X-100, 0.5% Sodium deoxycholate, 0.05% sodium dodecylsulfate, 1 mM MgSO4, SIGMAFAST Protease inhibitor mix, 100 U/mL benzonase (Millipore-Sigma). Lysates were then spun down at 16,000×g to remove particulates and the supernatant was mixed 1:1 with 2X Laemmli sample buffer (Bio-Rad) containing 50 mg/mL dithiothreitol (DTT). Samples were then heated at 70° C. for 10 minutes and run on an SDS-PAGE gel (3-8% Tris-Acetate Novex gel, Invitrogen) at 150 V for 1.5 hours at 4° C. Bands were then transferred to PVDF membranes (100 V, 1 hour at 4° C.) and blocked with 10% skim milk powder in TBST buffer at 4° C. overnight. Blots were probed sequentially with either mouse anti-actin (1.5 μg/mL) or mouse anti-FANCD2 (0.1 μg/mL) primary antibodies (Thermo Fisher Scientific, Catalog #MA511869 and MA123347), followed by a peroxidase-conjugated goat anti-mouse secondary antibody (Jackson ImmunoResearch product 115-035-003, 0.08 μg/mL). Each probing step was conducted for 90 minutes at room temperature n 2.5% skim milk powder in TBST. Before imaging, blots were washed 3×15 minutes each in TBST […]. Blots were imaged using the SuperSignal™ West Pico PLUS Chemiluminescent Substrate (Thermo Fisher Scientific) kit following the manufacturer's instructions and imaged using an Azure Biosystems c300 imager."}, "[3]": {"system": "a variety of bacterial strains from common gut phyla, including E. coli", "test": "Turbidity MIC assay, all strains together", "type": "cell-based", "details": "Escherichia coli; all strains tested; upper limit tested 200 μM; read-out: MICs in liquid culture", "text": "Compound 3 is an inhibitor of colibactin-associated genotoxicity. Since colibactin is produced in the context of the gut microbiota, it is essential to understand how 3 can affect other members of this community and whether it remains an effective inhibitor under these conditions. […] A turbidity assay was used to determine minimum inhibitory concentrations (MICs) in liquid culture of 1-4 against a variety of bacterial strains from common gut phyla, including E. coli (Table 3).\nMICs of compounds against different bacterial species were determined using a modified version of a broth microdilution protocol which has been previously reported.^1 Briefly, cultures of each species indicated were inoculated from frozen stocks in deoxygenated Wilkins-Chalgren Anaerobic Medium (WCAM) inside of an anerobic chamber with an 92.5% N2/5% CO2/2.5% H2 atmosphere. Cultures were grown for 24-48 hours in a 37° C. incubator at which point an OD600-measurement was taken for each culture and was accordingly diluted in fresh WCAM to an equivalent of OD600=0.01. Diluted cultures were then distributed into the wells of a clear, flat-bottom 384-well plate and the compound of interest was added to a final DMSO concentration of 2% (or DMSO only for positive controls). […] mineral oil (Millipore Sigma) was deposited on top of the cultures and plates were covered with a clear adhesive plate seal. Plates were incubated at 37° C. for 16 hours, at which point the OD600 of all wells was recorded on a SpectraMax M2 plate reader (Molecular Devices)."}}, "note": "“Also recorded” adds a separate entry of the source.", "data": [{"smiles": "CC1(C)OB([C@@H](CC(N)=O)NC(=O)CCCc2ccccc2)OC1(C)C", "note": "[Compound 3]", "values": [{"measurement": "competitive binding to BOCILLIN-FL labeled PBPs", "setting": "[1]; B. cereus ATCC14579 lysate", "result": "none of these PBPs showed any binding; also recorded: no competitive binding"}, {"measurement": "competitive binding to BOCILLIN-FL labeled PBPs", "setting": "[1]; E. coli NC101 lysate", "result": "none of these PBPs showed any binding; also recorded: no competitive binding"}, {"measurement": "changes in metabolites versus clbP deletion", "setting": "E. coli BW25113 BACpks", "result": "resulted in the same changes in metabolites as genetic deletion of clbP"}, {"measurement": "FANCD2 ubiquitination in colibactin-exposed cells", "setting": "[2]; HeLa cells exposed to pks+ E. coli (NC101)", "result": "prevented this response; also recorded: prevents"}, {"measurement": "effect of 3 on FANCD2-Ub response to MMC or cisplatin", "setting": "[2]; HeLa cells", "result": "had no impact on the response to MMC or cisplatin"}, {"measurement": "MIC", "setting": "[3]", "result": "> 200", "unit": "µM"}]}]}
